Values quoted from earlier work in US20040002663A1, “Method and system for use in detecting a cancerous and precancerous pathology” (priority 2002, published 2004).
Like-named read-outs stand apart in the source and are kept apart here.

Columns and labels:
[1] = system: patients with orthostatic hypotension of various etiologies
[2] = system: patients with orthostatic hypotension
[3] = system: patients with orthostatic hypotension; details: for increase in standing one-minute systolic pressure: at one hour
[4] = system: patients with orthostatic hypotension; details: for increase in one-minute standing systolic blood pressure: 10 mg at 0, 3, 6 hours
[5] = system: alpha-adrenergic receptors of the arteriolar and venous vasculature; details: active metabolite of midodrine
[6] = system: cardiac beta-adrenergic receptors
[7] = 10 mg t.i.d., printed as a pair (systolic/diastolic)

| Structure (SMILES) | standing, sitting, and supine systolic and diastolic blood pressure [1] | higher one-minute standing systolic pressure ([2]; 10 mg t.i.d., one hour after dosing, 170 patients, vs placebo) | sitting blood pressure rise [2, 7] | supine blood pressure rise [2, 7] | dizziness/light headedness/unsteadiness scores and global evaluations ([2]; after week one) | time the increase in standing systolic pressure was sustained in part ([3]; after 10 mg) | time the increase in standing systolic pressure was sustained in part ([3]; after 20 mg) | increase in standing one-minute systolic pressure ([3]; single 10 mg dose) | increase in standing one-minute systolic pressure ([3]; single 20 mg dose) | increase in one-minute standing systolic blood pressure ([4]; one hour after each dose) | increase in one-minute standing systolic blood pressure ([4]; three hours after each dose) | three-minute standing pressures ([4]; 10 mg, one and 3 hours after dosing) | standing time ([4]; 10 mg, one and three hours after dosing) | action at alpha-adrenergic receptors [5] | stimulation of cardiac beta-adrenergic receptors [6] |
| --- | --- | --- | --- | --- | --- | --- | --- | --- | --- | --- | --- | --- | --- | --- | --- |
| COc1ccc(OC)c(C(O)CNC(=O)CN)c1.Cl (racemic) [midodrine, (±)−2-amino-N-(β-hydroxy-2,5-dimethoxyphenethyl)acetamide monohydrochloride] | rise | about 20 mmHg | 20/10 | 16/8 | small improvements | two | four | about 30 mmHg | about 30 mmHg | about 15 mmHg | about 12 mmHg | increased also at one, but not 3, hours after dosing | increases in standing time seen intermittently one hour after dosing, but not at three hours | – | – |
| COc1ccc(OC)c(C(O)CN)c1 (stereo not drawn) [Desglymidodrine] | – | – | – | – | – | – | – | – | – | – | – | – | – | alph1-agonist | does not stimulate |
